For test [1], the target named is T1, RORγt (Homo sapiens, UniProt P51449).
T1 sequence (P51449 1-497 isoform P51449-2): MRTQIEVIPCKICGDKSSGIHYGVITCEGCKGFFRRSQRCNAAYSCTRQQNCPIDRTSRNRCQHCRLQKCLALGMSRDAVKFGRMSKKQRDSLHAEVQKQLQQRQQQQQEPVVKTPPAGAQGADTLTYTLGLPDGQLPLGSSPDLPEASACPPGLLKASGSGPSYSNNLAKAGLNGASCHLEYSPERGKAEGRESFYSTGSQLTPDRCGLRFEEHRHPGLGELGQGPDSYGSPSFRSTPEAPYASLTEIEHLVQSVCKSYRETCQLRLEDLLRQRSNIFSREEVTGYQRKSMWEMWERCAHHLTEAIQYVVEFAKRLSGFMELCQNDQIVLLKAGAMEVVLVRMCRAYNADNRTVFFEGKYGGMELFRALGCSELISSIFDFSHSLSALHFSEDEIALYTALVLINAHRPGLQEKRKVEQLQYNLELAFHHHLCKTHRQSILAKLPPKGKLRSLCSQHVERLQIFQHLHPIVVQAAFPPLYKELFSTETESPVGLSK
The experiment in a line: Jurkat reporter test (human IL-17 ROR response element luciferase, RORγt vector). The class given is cell-based. As to conditions: read-out: Luminescence level inhibitory rate at test compound 3 μM (%). The gist of the method:
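Jurkat cells were electroporated (1350 V, 10 ms, 3 pulses) with reporter constructs, then cultured overnight with compound in RPMI containing 10% lipid-reduced FCS, 10 mM HEPES pH 7.5 and 5 μM lovastatin. Luciferase was quantified by Bright-Glo luminescence after 10 min at room temperature.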

Test [2] addresses T1, RORγt. The experiment in a line: RORγt binding test using fluorescent-labeled synthetic ligand (TR-FRET). The following applies: read-out: Binding inhibitory rate of fluorescent-labeled synthetic ligand to RORγt at test compound 1 μM (%). The gist of the method: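 His-tagged RORγt (diluted to 240 nM) with compound, then fluorescent synthetic ligand (diluted to 12 μM), 20 min at room temperature, followed by Tb anti-His antibody (diluted to 8 nM), 20 min.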
(In general: Time-resolved FRET reads energy transfer from a long-lived donor to a nearby acceptor.)

For test [3], the target named is T1, RORγt. Put plainly: Cofactor recruitment test (Alpha Screen, biotinylated SRC-1 peptide). The following applies: read-out: Signal value inhibitory rate at test compound 1 μM (%). The class given is biochemical. The protocol:
Cofactor Recruitment Test
Cofactor recruitment test was performed by Alpha Screen (Histidine Detection Kit, PerkinElmer) method. First, a test compound was diluted with an assay buffer (50 mM Tris-HCl (pH 7.5), 50 mM KCl, 1 mM DTT, 0.1% BSA) and added to a 384 well plate by 5 μL. […] The mixture was stood in a dark place for 1 hr, and the signal value was measured by Envision (PerkinElmer).

Test [4] deals with T1, RORγt. Put plainly: RORγt binding test using fluorescent-labeled cholesterol (TR-FRET). The following applies: read-out: Binding inhibitory rate of fluorescent-labeled cholesterol to RORγt at test compound 1 μM (%). The gist of the method: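 TR-FRET displacement with His-tagged RORγt, BODIPY-cholesterol and Tb-anti-His antibody in Tris-HCl pH 7.5, 100 mM NaCl, 1 mM DTT, 0.1% BSA. Compound, RORγt and labelled cholesterol were incubated 20 min at RT, then antibody was added for another 20 min.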

[5] abbreviates: test compound 3 μM, Jurkat cells.

Structures are written as SMILES. Like-named read-outs stand apart in the source and are kept apart here.

Turning to `COCc1ccc2c(c1)CCN(C(=O)Cc1cc(O)no1)[C@H]2C(=O)Nc1cc(F)c([Si](C)(C)C)c(F)c1` [Example 121, (1R)-N-(3,5-difluoro-4-(trimethylsilyl)phenyl)-2-((3-hydroxy-1,2-oxazol-5-yl)acetyl)-6-(methoxymethyl)-1,2,3,4-tetrahydroisoquinoline-1-carboxamide], at RORγt [1] (Jurkat), the inhibition at 3 µM worked out at 103%. Besides, the inhibition at 1 µM at RORγt [2] came to 101%; at RORγt [3] it was 100%; on RORγt [4] it was 101%.

Turning to `COCc1ccc2c(c1)CCN(C(=O)Cc1cc(O)no1)[C@H]2C(=O)Nc1cc(F)c2c(c1)CCC2(C)C` [Example 169, (1R)-N-(7-fluoro-1,1-dimethyl-2,3-dihydro-1H-inden-5-yl)-2-((3-hydroxy-1,2-oxazol-5-yl)acetyl)-6-(methoxymethyl)-1,2,3,4-tetrahydroisoquinoline-1-carboxamide], on RORγt [1] (setting [5]), the inhibition at 3 µM came to 102%. Also, the values for the inhibition at 1 µM at RORγt [2], at RORγt [3] and on RORγt [4] were 102%, 93% and 102%, respectively.

Take `COCc1ccc2c(c1)CCN(C(=O)CCCC(=O)O)[C@H]2C(=O)Nc1cc(F)c([Si](C)(C)C)c(F)c1` [Example 130, 5-((1R)-1-((3,5-difluoro-4-(trimethylsilyl)phenyl)carbamoyl)-6-(methoxymethyl)-3,4-dihydroisoquinolin-2(1H)-yl)-5-oxopentanoic acid]: the inhibition at 3 µM at RORγt [1] (Jurkat) came to 104%. Besides, the inhibition at 1 µM at RORγt [2] was 102%; on RORγt [3] it was 100%; at RORγt [4] it was 102%.

For the compound `CCOCC(C)(C)c1c(F)cc(NC(=O)[C@H]2c3ccc(OC)cc3CCN2C(=O)c2cc(O)no2)cc1F` [Example 171, (1R)-N-(4-(1-ethoxy-2-methylpropan-2-yl)-3,5-difluorophenyl)-2-((3-hydroxy-1,2-oxazol-5-yl)carbonyl)-6-methoxy-1,2,3,4-tetrahydroisoquinoline-1-carboxamide], the inhibition at 3 µM on RORγt [1] (setting [5]) worked out at 96%. For the same compound, the values for the inhibition at 1 µM at RORγt [2], at RORγt [3] and at RORγt [4] were 101%, 82% and 100%, respectively.

For `COc1ccc2c(c1)CCN(C(=O)c1cc(O)no1)[C@H]2C(=O)Nc1ccc(C(C)(C)C)c(F)c1` [Example 13, (1R)-N-(4-tert-butyl-3-fluorophenyl)-2-((3-hydroxy-1,2-oxazol-5-yl)carbonyl)-6-methoxy-1,2,3,4-tetrahydroisoquinoline-1-carboxamide], the inhibition at 3 µM on RORγt [1] (setting [5]) was 101%. Further, the inhibition at 1 µM at RORγt [2] was 102%; at RORγt [3], 80.4%; on RORγt [4], 100%.

For `COc1ccc2c(c1)CCN(C(=O)Cc1cc(O)no1)[C@H]2C(=O)Nc1ccc([Si](C)(C)C)c(C#N)c1` [Example 72, (1R)-N-(3-cyano-4-(trimethylsilyl)phenyl)-2-((3-hydroxy-1,2-oxazol-5-yl)acetyl)-6-methoxy-1,2,3,4-tetrahydroisoquinoline-1-carboxamide], the inhibition at 3 µM at RORγt [1] (Jurkat) was found to be 100%. The inhibition at 1 µM at RORγt [2] was 102%; on RORγt [3], 94%; at RORγt [4] it was 104%.

Take `CCOc1ccc2c(n1)CCN(C(=O)Cc1cc(O)no1)[C@H]2C(=O)Nc1cc(F)c2c(c1)CCC2(C)C` [Example 147, (5R)-2-ethoxy-N-(7-fluoro-1,1-dimethyl-2,3-dihydro-1H-inden-5-yl)-6-((3-hydroxy-1,2-oxazol-5-yl)acetyl)-5,6,7,8-tetrahydro-1,6-naphthyridine-5-carboxamide]: on RORγt [1] (setting [5]), the inhibition at 3 µM turned out to be 101%. Besides, the inhibition at 1 µM was found to be 101% at RORγt [2], 89% at RORγt [3] and 101% on RORγt [4].

Take `COc1ccc2c(n1)CCN(C(=O)Cc1cc(O)no1)[C@H]2C(=O)Nc1ccc(C(C)(C)C)c(F)c1` [Example 78, (5R)-N-(4-tert-butyl-3-fluorophenyl)-6-((3-hydroxy-1,2-oxazol-5-yl)acetyl)-2-methoxy-5,6,7,8-tetrahydro-1,6-naphthyridine-5-carboxamide]: the inhibition at 3 µM at RORγt [1] (setting [5]) worked out at 101%. For the same compound, the inhibition at 1 µM on RORγt [2] was 102%; on RORγt [3] it was 89%; at RORγt [4], 101%.

In the case of `CC[Si](C)(C)c1c(F)cc(NC(=O)[C@H]2c3ccc(OC)nc3CCN2C(=O)c2cc(O)no2)cc1F` [Example 111, (5R)-N-(4-(ethyl (dimethyl)silyl)-3,5-difluorophenyl)-6-((3-hydroxy-1,2-oxazol-5-yl)carbonyl)-2-methoxy-5,6,7,8-tetrahydro-1,6-naphthyridine-5-carboxamide], at RORγt [1] (Jurkat), the inhibition at 3 µM was 103%. The inhibition at 1 µM on RORγt [2] is 101%; at RORγt [3], 99%; on RORγt [4], 103%.

On to `COCc1ccc2c(c1)CCN(C(=O)c1cc(O)no1)[C@H]2C(=O)Nc1ccc([Si](C)(C)C)c(F)c1` [Example 107, (1R)-N-(3-fluoro-4-(trimethylsilyl)phenyl)-2-((3-hydroxy-1,2-oxazol-5-yl)carbonyl)-6-(methoxymethyl)-1,2,3,4-tetrahydroisoquinoline-1-carboxamide], for which the inhibition at 3 µM on RORγt [1] (Jurkat) worked out at 102%. Further, the inhibition at 1 µM at RORγt [2] came to 102%; at RORγt [3] it was 100%; at RORγt [4], 103%.

Turning to `CC[Si](C)(C)c1c(F)cc(NC(=O)[C@H]2c3ccc(OC)cc3CCN2C(=O)CCCC(=O)O)cc1F` [Example 86, 5-((1R)-1-((4-(ethyl(dimethyl)silyl)-3,5-difluorophenyl)carbamoyl)-6-methoxy-3,4-dihydroisoquinolin-2(1H)-yl)-5-oxopentanoic acid], the inhibition at 3 µM at RORγt [1] (Jurkat) amounted to 101%. Also, the results for the inhibition at 1 µM on RORγt [2], at RORγt [3] and at RORγt [4] were 102%, 98% and 103%, respectively.

Take `COc1ccc2c(n1)CCN(C(=O)Cc1cc(O)no1)[C@H]2C(=O)Nc1cc(F)c2c(c1)CCC2(C)C` [Example 117, (5R)-N-(7-fluoro-1,1-dimethyl-2,3-dihydro-1H-inden-5-yl)-6-((3-hydroxy-1,2-oxazol-5-yl)acetyl)-2-methoxy-5,6,7,8-tetrahydro-1,6-naphthyridine-5-carboxamide]: the inhibition at 3 µM on RORγt [1] (setting [5]) was determined as 101%. The results for the inhibition at 1 µM on RORγt [2], at RORγt [3] and on RORγt [4] were 102%, 87% and 102%, respectively.

`COc1ccc2c(c1)CCN(C(=O)CCc1cc(O)no1)[C@H]2C(=O)Nc1cc(F)c2c(c1)CCC2(C)C` [Example 63, (1R)-N-(7-fluoro-1,1-dimethyl-2,3-dihydro-1H-inden-5-yl)-2-(3-(3-hydroxy-1,2-oxazol-5-yl)propanoyl)-6-methoxy-1,2,3,4-tetrahydroisoquinoline-1-carboxamide]: the inhibition at 3 µM at RORγt [1] (setting [5]) was 99.9%. For the same compound, the inhibition at 1 µM was determined as 102% at RORγt [2], 70% at RORγt [3] and 100% at RORγt [4].

Take `COCc1ccc2c(n1)CCN(C(=O)Cc1cc(O)no1)[C@H]2C(=O)Nc1cc(F)c([Si](C)(C)C)c(F)c1` [Example 138, (5R)-N-(3,5-difluoro-4-(trimethylsilyl)phenyl)-6-((3-hydroxy-1,2-oxazol-5-yl)acetyl)-2-(methoxymethyl)-5,6,7,8-tetrahydro-1,6-naphthyridine-5-carboxamide]: the inhibition at 3 µM on RORγt [1] (Jurkat) was found to be 104%. The inhibition at 1 µM turned out to be 101% at RORγt [2], 100% at RORγt [3] and 102% on RORγt [4].

Take `CCOc1ccc2c(n1)CCN(C(=O)CCCC(=O)O)[C@H]2C(=O)Nc1cc(F)c([Si](C)(C)C)c(F)c1` [Example 129, 5-((5R)-5-((3,5-difluoro-4-(trimethylsilyl)phenyl)carbamoyl)-2-ethoxy-7,8-dihydro-1,6-naphthyridin-6(5H)-yl)-5-oxopentanoic acid]: the inhibition at 3 µM on RORγt [1] (Jurkat) is 102%. The inhibition at 1 µM worked out at 101% on RORγt [2], 99% at RORγt [3] and 98% on RORγt [4].

For the origin of these results see US10053468B2, “Heterocyclic compound” (TAKEDA PHARMACEUTICAL COMPANY LIMITED, priority 2013, dated 2018).
